Source: patent US7601884B2, “Method of producing cloned animals by demecolcine treatment” (KNU - Industry Cooperation Foundation, priority 2007, dated 2009)

Tests used:
[1] = tested on: recipient pigs transferred with SCNT embryos; assay: Delivery rate and number of pigs born alive after in vivo transfer of DEM-treated SCNT embryos; set-up: species or system pig
Excerpt: For in vivo transfer of the NT embryos, a naturally-estrous gilt was used as a recipient animal. On the day of the production of the NT embryos, a standing estrus pig was subjected to inhalation anesthesia, and using a common method, cut open to expose the ovaries and oviducts. After confirming the presence of follicle, ovulation and corpus luteum in the ovary, 90 to 160 SCNT embryos activated and treated with DEM were transferred into the oviduct by fimbriae. The recipient pig into which the NT embryos were transferred was monitored to confirm whether or not it was estrus, and a pregnancy test was taken every two weeks, 4 weeks after transfer of the fertilized embryos. When the recipient pig gave birth to live, SCNT embryo-derived offspring, its period of pregnancy, the number of live offspring, their weight, and morphological abnormalities found in any of the live offspring were monitored and recorded.
The effect of DEM treatment to the SCNT embryos on delivery rate and the number of pigs born alive was surveyed. Each group of SCNT embryos (107-160/a recipient pig), wherein one was treated with DEM according to Exemplary Embodiment 4 and the other (102-165/a recipient pig) was not treated with DEM, was transferred into 8 to 10 recipient pigs monitored to see whether or not they were estrus. Starting 4 weeks after transfer of the fertilized embryos, they were given pregnancy tests every 2 weeks. When they gave birth to live, SCNT embryo-derived offspring, the period of pregnancy, the number of live offspring, their weight and any morphological abnormalities were monitored and recorded. Further, the number of recipient pigs having live offspring and the number of pigs born alive in a litter were surveyed.

SCNT embryos [2] = assay: Production of pseudo-pronuclei of SCNT embryos after DEM treatment; type: cell-based, pig; details: 0.4 μg/ml DEM for 4 hours
Description: (§1) After the activation stimulation, the activated embryos were incubated in NCSU-23 culture medium containing 0.4 μg/ml demecolcine (DEM) (Sigma-Aldrich Corp., USA) for 4 hours.
The oocytes treated with DEM of Exemplary Embodiment 3 or the oocytes of Comparative Example 1 were cultured in vitro for 7 hours, activated, fixed for 11 hours, and stained to estimate the number of pseudo-pronuclei and their production rate. The fixation of the oocytes was performed using a whole-mount method. 10 to 20 oocytes were placed on a slide glass and covered with a cover glass. The oocytes were fixed in a fixative (25% acetic acid in ethanol) at 33° C. for 10 to 20 minutes. The fixed oocytes were stained with 1% orcein (in 45% acetic acid solution) and then the pseudo pronuclei were observed by a phase microscope.

SCNT embryos [3] = assay: In vitro development of SCNT embryos according to time of DEM treatment; type: cell-based, pig
Description: (§2) The SCNT embryos of Exemplary Embodiment 3 and Comparative Example 1 were cultured in vitro with an atmosphere of 5% CO2, 5% O2 and 90% N2 gases. On the second and sixth days of the in vitro culture, their division rates and development to blastocysts were monitored. Further, the blastocysts were stained with bis-benzimide to estimate the number of cells under a fluorescent microscope.
Change in in vitro development of SCNT embryos depending on the time of DEM treatment was surveyed. The SCNT embryos activated according to Exemplary Embodiment <3-4> were incubated in NCSU-23 culture medium containing 0.4 μg/ml DEM for 2, 4 and 6 hours, respectively, and cultured in vitro by the same method as described in Experimental Example 1, followed by observation of their development to blastocysts.

SCNT porcine embryos = assay: In vitro development of SCNT porcine embryos after DEM treatment; type: cell-based, pig
Description: as §1
With the same method as in Exemplary Embodiment <3-4>, the fused NT embryos were electrically activated, but not treated with DEM.
After activation stimulation, the SCNT embryos were cultured in in vitro culture medium for 6 days in an atmosphere of 5% CO2, 5% O2 and 90% N2 gas.
as §2

[4] = recipient pig transferred with SCNT embryos treated with DEM
[5] = 0.4 μg/ml DEM for 2 hrs, of N=141
[6] = 0.4 μg/ml DEM for 4 hrs, of N=142
[7] = 0.4 μg/ml DEM for 6 hrs, of N=142

## CN[C@H]1CCc2cc(OC)c(OC)c(OC)c2-c2ccc(OC)c(=O)cc21 [DEM, demecolcine]
[1]; SCNT embryos treated with DEM
  No. of Pigs/Litter: 3.0
[1]; SCNT embryos treated with DEM, 8 recipient pigs
  No. of Pigs Born Alive: 12
[1]; SCNT embryos treated with DEM, 107-160 per recipient pig
  Recipient Pigs Delivered(%): 50.0%
[1]; SCNT embryos treated with DEM, 107-160 per recipient pig, of N=8 recipients
  No. of Recipient Pigs Delivered: 4
[1]; [4]
  delivery rate versus Comparative Example 1 (no DEM): significantly increased
  number of pigs born alive in a litter versus Comparative Example 1 (no DEM): significantly increased
SCNT embryos [2]
  1PPN (one pseudo pronucleus) (%): 83.7%
  Multi-PPN (2 or more pseudo pronuclei) (%): 9.3%
  Others(%): 7.0%
SCNT embryos [2]; of N=43
  1PPN (one pseudo pronucleus), number of embryos: 36
  Multi-PPN (2 or more pseudo pronuclei), number of embryos: 4
  Others, number of embryos: 3
SCNT embryos [3]; 0.4 μg/ml DEM for 2, 4 and 6 hours
  change in in vitro development of the SCNT embryos according to the time of DEM treatment: wasn't a significant change
SCNT embryos [3]; 0.4 μg/ml DEM for 2 hrs
  Blastocysts (%): 24.8%
  No. of Cells/Blastocysts: 35.3 ± 2.1
  ≧2 cells (%): 84.4%
SCNT embryos [3]; [5]
  Blastocysts, number of embryos: 35
  ≧2 cells, number of embryos: 119
SCNT embryos [3]; 0.4 μg/ml DEM for 4 hrs
  Blastocysts (%): 29.6%
  No. of Cells/Blastocysts: 35.2 ± 1.8
  ≧2 cells (%): 80.3%
SCNT embryos [3]; [6]
  Blastocysts, number of embryos: 42
  ≧2 cells, number of embryos: 114
SCNT embryos [3]; 0.4 μg/ml DEM for 6 hrs
  Blastocysts (%): 25.4%
  No. of Cells/Blastocysts: 30.8 ± 2.7
  ≧2 cells (%): 78.2%
SCNT embryos [3]; [7]
  Blastocysts, number of embryos: 36
  ≧2 cells, number of embryos: 111
SCNT embryos [3]; 4-hour incubation period with 0.4 μg/ml DEM
  in vitro development of SCNT embryos, comparison of treatment times: highest level of growth
SCNT porcine embryos; 0.4 μg/ml DEM for 4 hours after activation, second day of in vitro culture
  ≧2-Cell(%): 76.8%
SCNT porcine embryos; 0.4 μg/ml DEM for 4 hours after activation, second day of in vitro culture, of N=187
  ≧2-Cell, number of embryos: 144
SCNT porcine embryos; 0.4 μg/ml DEM for 4 hours after activation, sixth day of in vitro culture
  Blastocyst(%): 27.3%
SCNT porcine embryos; 0.4 μg/ml DEM for 4 hours after activation, sixth day of in vitro culture, of N=187
  Blastocyst, number of embryos: 51
SCNT porcine embryos; 0.4 μg/ml DEM for 4 hours, bis-benzimide staining
  No. of Cells/Blastocysts: 39.5
SCNT porcine embryos; embryos treated with DEM, then cultured in vitro
  development to blastocysts versus Comparative Example 1 (not treated with DEM): significantly improved
